Experimental data as given in BindingDB's records for doi:10.1021/jm00164a014 (Wellcome Research Laboratories, 1990).

Key:
ATIC (Sus scrofa) = test: Inhibition activity against AICAR formyltransferase from hog liver
[1] = molecular target: Trifunctional purine biosynthetic protein adenosine-3 (Mus musculus) (UniProt Q64737); test: Inhibition activity against Glycinamide ribonucleotide transformylase (GAR-TFase) from L cell
Trifunctional purine biosynthetic protein adenosine-3 (Mus musculus), sequence (Q64737 whole entry, looked up): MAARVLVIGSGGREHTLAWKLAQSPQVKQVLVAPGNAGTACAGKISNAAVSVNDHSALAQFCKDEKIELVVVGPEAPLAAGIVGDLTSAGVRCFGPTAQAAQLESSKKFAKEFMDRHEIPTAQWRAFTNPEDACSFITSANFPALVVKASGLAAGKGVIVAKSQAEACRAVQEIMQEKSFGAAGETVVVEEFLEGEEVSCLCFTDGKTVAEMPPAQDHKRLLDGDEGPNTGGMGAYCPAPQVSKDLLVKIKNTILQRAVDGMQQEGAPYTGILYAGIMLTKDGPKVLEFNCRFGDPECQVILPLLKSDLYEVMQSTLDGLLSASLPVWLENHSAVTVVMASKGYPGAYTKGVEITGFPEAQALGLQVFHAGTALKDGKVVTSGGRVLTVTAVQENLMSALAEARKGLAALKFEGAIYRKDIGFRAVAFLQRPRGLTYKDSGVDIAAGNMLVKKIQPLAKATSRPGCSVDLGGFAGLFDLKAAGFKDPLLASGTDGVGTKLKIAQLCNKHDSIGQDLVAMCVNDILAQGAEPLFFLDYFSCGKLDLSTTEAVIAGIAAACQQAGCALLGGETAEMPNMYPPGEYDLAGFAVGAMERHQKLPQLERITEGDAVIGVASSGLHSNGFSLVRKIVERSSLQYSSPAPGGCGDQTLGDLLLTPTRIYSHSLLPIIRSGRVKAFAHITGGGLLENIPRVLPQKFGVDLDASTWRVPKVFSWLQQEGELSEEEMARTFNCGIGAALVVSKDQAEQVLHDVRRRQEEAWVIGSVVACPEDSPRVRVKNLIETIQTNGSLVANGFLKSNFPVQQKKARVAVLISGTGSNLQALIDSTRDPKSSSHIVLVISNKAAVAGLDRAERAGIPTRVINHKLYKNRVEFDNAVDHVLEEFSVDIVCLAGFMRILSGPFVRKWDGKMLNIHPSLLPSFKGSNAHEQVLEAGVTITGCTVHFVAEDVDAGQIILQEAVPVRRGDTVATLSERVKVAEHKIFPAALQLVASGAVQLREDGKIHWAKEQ

IC50 (ATIC (Sus scrofa)): 68 µM | IC50 [1]: 4.3 µM
SMILES: CN(CCCc1c(N)nc(N)[nH]c1=O)c1ccc(C(=O)NC(CCC(=O)O)C(=O)O)cc1 (configuration not stated)
